In PMC9585577, “Oxyresveratrol and Gnetol Glucuronide Metabolites: Chemical Production, Structural Identification, Metabolism by Human and Rat Liver Fractions, and In Vitro Anti-inflammatory Properties” (Journal of Agricultural and Food Chemistry, 2022):

Tests used:
[1] = tested on: IL-1β production in LPS-stimulated RAW 264.7 cells; experiment: IL-1β production (ELISA) in LPS-stimulated macrophages; format: cell-based, murine; settings: t-GN 10 and 50 μM, its glucuronides 50 and 200 μM, 24 h
Description: (§1) RAW 264.7 cells were cultured in DMEM containing 10% FBS and maintained in a humidified incubator set at 37 °C with 5% CO2. For all following assays, cells were subcultured at a density of 40 000 cells per well in 96 well culture plates with 200 μL of the above-described culture medium. After 24 h, cells were incubated with ORV, GN, and their glucuronide metabolites (5–200 μM) in RPMI medium supplemented with glutamine (4 mM) in the presence or absence of LPS (0.1 μg/mL) (200 μL final volume per well). For MTT, NO, ROS, IL-1β, and TNF-α (n = 4), each experiment was performed in triplicate separately.
(§2) At 24 h after seeding, RAW 264.7 cells were exposed to LPS (0.1 μg/mL) in the absence or presence of ORV, GN (10 and 50 μM), and their metabolites (50 and 200 μM). After 24 h of exposure, IL-1β and TNF-α concentrations were measured in culture media supernatants by ELISA sandwich assay following the instructions of the manufacturer.

[2] = design: method as in PMID 25939395; settings: rats, intravenous and oral administration ref 2; cited from earlier work
[3] = tested on: RAW 264.7 cells; experiment: MTT cell viability; format: cell-based, murine; settings: 24 h, 5–200 μM tested
Description: as §1
The MTT colorimetric assay was performed to assess the cell viability of cells after being treated with ORV, GN, and their glucuronide metabolites. After 24 h of treatment, RAW 264.7 cells were incubated with 0.5 mg/mL MTT during 3 h at 37 °C. The formazan crystals formed were dissolved with 100 μL of dimethyl sulfoxide (DMSO), and the plate was then incubated in the darkness for 30 min. Finally, the absorbance was measured at 595 nm using a microplate reader (FLUOstar Optima, BMG Labtech).

[4] = tested on: TNF-α production in LPS-stimulated RAW 264.7 cells; experiment: TNF-α production (ELISA) in LPS-stimulated macrophages; format: cell-based, murine; settings: t-GN 10 and 50 μM, its glucuronides 50 and 200 μM, 24 h
Description: as §1, §2

[5] = tested on: BV-2 microglial cells; design: method as in PMID 23807809; settings: 5 and 10 μM, BV-2 microglial cells ref 36; cited from earlier work
[6] = tested on: ROS production in LPS-stimulated RAW 264.7 cells; experiment: Intracellular ROS measurement (DCFH2-DA) in LPS-stimulated macrophages; format: cell-based, murine
Description: as §1
Generation of intracellular ROS in cells was analyzed using the fluorometric probe DCFH2-DA. After 24 h of treatment with GN, ORV, and their glucuronide metabolites, cells were washed with phosphate-buffered saline (PBS) and then 150 μL of DCFH2-DA (10 μM) was added. After 30 min at 37 °C, the fluorescence intensity was quantified using a microplate reader (FLUOstar Optima, BMG Labtech) with a wavelength of excitation and emission of 485 and 520 nm, respectively. All experiments were performed in darkness. Results were expressed as ROS production (fluorescence intensity expressed as arbitrary units) compared to cells treated only with LPS (positive control).

[7] = tested on: NO production in LPS-stimulated RAW 264.7 cells; experiment: NO measurement (Griess) in LPS-stimulated macrophages; format: cell-based, murine; settings: between 25 and 50 μM (summary statement)
Description: as §1
After 24 h of treatment of RAW 264.7 cells with ORV, GN, and their glucuronide metabolites, 70 μL of supernatant was mixed with 70 μL of Griess solution. After 15 min in darkness, the absorbance was measured at 550 nm using a microplate reader (FLUOstar Optima, BMG Labtech). A calibration curve of NO2 (0–100 μM) was used for quantification. Data were expressed as NO production (μM) compared to cells treated only with LPS (positive control).

## Oc1cc(O)cc(/C=C/c2c(O)cccc2O)c1 [t-GN, trans-2′,3,5,6′-tetrahydroxystilbene]
[1]
  reduction of IL-1β: ineffective
[2]
  calculated bioavailability: 6.6%
[3]
  concentration from which toxic (MTT): ≥ 100 µM
[4]
  reduction of TNF-α: ineffective
[5]
  cytotoxic effect: no cytotoxic effect
[6]; GN, concentration not stated (5–50 μM tested), 24 h, LPS
  counteracting ROS production: more than 55%
[6]; between 25 and 50 μM (summary statement)
  decrease of ROS production: more than 50%
[7]
  decrease of NO production: more than 50%
